Data from article PMC4303209, “A novel phosphatidylinositol 3-kinase (PI3K) inhibitor directs a potent FOXO-dependent, p53-independent cell cycle arrest phenotype characterized by the differential induction of a subset of FOXO-regulated genes” (Breast Cancer Research : BCR, 2014).

System: MCF-7 breast cancer cells
Assay: Microarray gene expression analysis (Agilent whole human genome 4 x 44K; compound vs DMSO, LIMMA log2 fold change)
Format: cell-based

For `Cn1ncc2c(N3CCOCC3)nc(-c3cccc(O)c3)nc21` [ETP-45658], the “log2FC LATS1” value (gene LATS1 (Gene 9113), cell cycle genes) was 0.043, the log2FC (gene LATS2 (Gene 26524), cell cycle genes) was 0.213 and the “LCMT1 log2FC” value (gene LCMT1 (51451), apoptosis genes) was -0.115. For the same compound, the “LCN2 log2FC” value (gene LCN2 (3934), apoptosis genes) was 0.046, the log2FC (gene LEMD3 (Gene 23592), cell cycle genes) was 0.294 and the “LGALS1 log2FC” value (gene LGALS1 (3956), apoptosis genes) was 0.017. The “LGALS12 log2FC” value (gene LGALS12 (85329), apoptosis genes) was 0.013, the “LGALS14 log2FC” value (gene LGALS14 (56891), apoptosis genes) was -0.009 and the log2FC (gene LMNA (Gene 4000), cell cycle genes) was -0.311. For the same compound, the “LRP1 log2FC” value (gene LRP1 (4035), apoptosis genes) was 0.0019, the log2FC (gene LRP6 (Gene 4040), cell cycle genes) was -0.141 and the log2FC (gene LSM11 (Gene 134353), cell cycle genes) was 0.145. The “LTA log2FC” value (gene LTA (4049), apoptosis genes) was -0.039, the “LTF log2FC” value (gene LTF (4057), apoptosis genes) was 0.011 and the “MAD2L1 log2FC” value (gene MAD2L1 (4085), apoptosis genes) was 0.081. For the same compound, the “MAEL log2FC” value (gene MAEL (84944), apoptosis genes) was -0.018, the “log2FC MAEL” value (gene MAEL (Gene 84944), cell cycle genes) was -0.018 and the “MAGED1 log2FC” value (gene MAGED1 (9500), apoptosis genes) was -0.026. For the same compound, the “MAGEH1 log2FC” value (gene MAGEH1 (28986), apoptosis genes) was -0.040, the “MAP2K5 log2FC” value (gene MAP2K5 (5607), apoptosis genes) was -0.077 and the “MAP2K7 log2FC” value (gene MAP2K7 (5609), apoptosis genes) was 0.020. For the same compound, the log2FC (gene MAP3K8 (Gene 1326), cell cycle genes) was 0.390, the log2FC (gene MAP4 (Gene 4134), cell cycle genes) was -0.267 and the “MAPK1 log2FC” value (gene MAPK1 (5594), apoptosis genes) was -0.045. The log2FC (gene MAPK4 (Gene 5596), cell cycle genes) was -0.157, the log2FC (gene MAPK6 (Gene 5597), cell cycle genes) was 0.270 and the “MAPK8 log2FC” value (gene MAPK8 (5599), apoptosis genes) was 0.027. For the same compound, the “MAPK9 log2FC” value (gene MAPK9 (5601), apoptosis genes) was 0.064, the log2FC (gene MAPK12 (Gene 6300), cell cycle genes) was -0.374 and the “MAPT log2FC” value (gene MAPT (4137), apoptosis genes) was -0.024. The “log2FC MCM4” value (gene MCM4 (Gene 4173), cell cycle genes) was 0.015, the “MDM4 log2FC” value (gene MDM4 (4194), apoptosis genes) was 0.064 and the log2FC (gene MED25 (Gene 81857), cell cycle genes) was -0.377. The “MKL1 log2FC” value (gene MKL1 (57591), apoptosis genes) was 0.068, the “MKNK1 log2FC” value (gene MKNK1 (8569), apoptosis genes) was -0.00243 and the “MNDA log2FC” value (gene MNDA (4332), apoptosis genes) was -0.056. For the same compound, the “MSX2 log2FC” value (gene MSX2 (4488), apoptosis genes) was 0.054, the “MT3 log2FC” value (gene MT3 (4504), apoptosis genes) was -0.266 and the log2FC (gene MYOG (Gene 4656), cell cycle genes) was -0.210. For the same compound, the “NACA log2FC” value (gene NACA (4666), apoptosis genes) was 0.023, the “log2FC NANOG” value (gene NANOG (Gene 79923), cell cycle genes) was -0.00653 and the log2FC (gene NASP (Gene 4678), cell cycle genes) was 0.392. For the same compound, the “NCF1 log2FC” value (gene NCF1 (653361), apoptosis genes) was -0.052, the “NCF2 log2FC” value (gene NCF2 (4688), apoptosis genes) was -0.027 and the log2FC (gene NCOR1 (Gene 9611), cell cycle genes) was 0.294. For the same compound, the “NDUFS3 log2FC” value (gene NDUFS3 (4722), apoptosis genes) was -0.101, the “NEURL log2FC” value (gene NEURL (9148), apoptosis genes) was -0.034 and the “NEUROD1 log2FC” value (gene NEUROD1 (4760), apoptosis genes) was -0.043. The “log2FC NEUROG1” value (gene NEUROG1 (Gene 4762), cell cycle genes) was 0.161, the “NLE1 log2FC” value (gene NLE1 (54475), apoptosis genes) was 0.057 and the “NME6 log2FC” value (gene NME6 (10201), apoptosis genes) was -0.008. For the same compound, the “log2FC NME6” value (gene NME6 (Gene 10201), cell cycle genes) was -0.008, the “NOS1AP log2FC” value (gene NOS1AP (9722), apoptosis genes) was 0.022 and the “NOTCH1 log2FC” value (gene NOTCH1 (4851), apoptosis genes) was -0.090. For the same compound, the “NOX5 log2FC” value (gene NOX5 (79400), apoptosis genes) was -0.012, the “log2FC NOX5” value (gene NOX5 (Gene 79400), cell cycle genes) was -0.012 and the “NTRK1 log2FC” value (gene NTRK1 (4914), apoptosis genes) was -0.014. The log2FC (gene NUMA1 (Gene 4926), cell cycle genes) was -0.415, the log2FC (gene NUP153 (Gene 9972), cell cycle genes) was -0.238 and the “log2FC NUP155” value (gene NUP155 (Gene 9631), cell cycle genes) was -0.034. The log2FC (gene NUP188 (Gene 23511), cell cycle genes) was -0.304, the “NUPR1 log2FC” value (gene NUPR1 (26471), apoptosis genes) was 0.023 and the “OSR1 log2FC” value (gene OSR1 (130497), apoptosis genes) was -0.039. The “P4HB log2FC” value (gene P4HB (5034), apoptosis genes) was 0.022, the log2FC (gene PA2G4 (Gene 5036), cell cycle genes) was -0.298 and the “PAFAH2 log2FC” value (gene PAFAH2 (5051), apoptosis genes) was 0.046. For the same compound, the “PAK6 log2FC” value (gene PAK6 (56924), apoptosis genes) was -0.022, the “log2FC PAK6” value (gene PAK6 (Gene 56924), cell cycle genes) was -0.022 and the log2FC (gene PAPD5 (Gene 64282), cell cycle genes) was 0.341. The “PARK7 log2FC” value (gene PARK7 (11315), apoptosis genes) was 0.028, the “PAX2 log2FC” value (gene PAX2 (5076), apoptosis genes) was 0.003 and the “log2FC PCNA” value (gene PCNA (Gene 5111), cell cycle genes) was -0.00322. For the same compound, the “PCSK9 log2FC” value (gene PCSK9 (255738), apoptosis genes) was -0.039, the “log2FC PDCD2L” value (gene PDCD2L (Gene 84306), cell cycle genes) was 0.012 and the “PDCD5 log2FC” value (gene PDCD5 (9141), apoptosis genes) was 0.123. The “PDCL3 log2FC” value (gene PDCL3 (79031), apoptosis genes) was -0.100, the “PDE1B log2FC” value (gene PDE1B (5153), apoptosis genes) was 0.004 and the “PDE3A log2FC” value (gene PDE3A (5139), apoptosis genes) was -0.006. For the same compound, the “log2FC PDE3A” value (gene PDE3A (Gene 5139), cell cycle genes) was -0.006.
